Among the data in patent US6916840B2, “Spla2 inhibitors” (Eli Lilly and Company, priority 2000, dated 2005) are IC50 and melting point values, retold here.

Molecules are shown by their SMILES.

One data set addresses T1, recombinant human secreted phospholipase A2 (sPLA2) (Homo sapiens, UniProt P14555).
T1 sequence (P14555 21-144): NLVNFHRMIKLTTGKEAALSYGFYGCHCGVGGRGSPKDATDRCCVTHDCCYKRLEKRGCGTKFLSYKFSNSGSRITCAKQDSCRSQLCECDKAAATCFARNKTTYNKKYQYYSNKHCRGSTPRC
The data set is described as follows: chromogenic assay for inhibitors of recombinant human secreted phospholipase A2. In kind it is biochemical. The following applies: diheptanoyl thio-PC substrate 1 mM, Triton X-100 mixed micelles, pH 7.5, 40° C. for 30 minutes, absorbance at 405 nm, triplicate. The source says:
The following chromogenic assay procedure was used to identify and evaluate inhibitors of recombinant human secreted phospholipase A2. The assay described herein has been adapted for high volume screening using 96 well microtiter plates. A general description of this assay method is found in the article, “Analysis of Human Synovial Fluid Phospholipase A2 on Short Chain Phosphatidylcholine-Mixed Micelles: Development of a Spectrophotometric Assay Suitable for a Microtiterplate Reader”, by Laure J. Reynolds, Lori L. Hughes, and Edward A Dennis, Analytical Biochemistry, 204, pp. 190-197, 1992 (the disclosure of which is incorporated herein by reference):
A measured volume of racemic dipheptanoyl thio PC supplied in chloroform at a concentration of 100 mg/ml is taken to dryness and redissolved in 10 millimolar TRITON X-100™ nonionic detergent aqueous solution. Reaction Buffer is added to the solution, then DTNB to give the Reaction Mixture.
The reaction mixture thus obtained contains 1 mM diheptanoly thio-PC substrate, 0.29 mm Triton X-100™ detergent, and 0.12 mm DTMB in a buffered aqueous solution at pH 7.5.
• 1. Add 0.2 ml reaction mixture to all wells; • 2. Add 10 ul test compound (or solvent blank) to appropriate wells, mix 20 seconds; • 3. Add 50 nanograms of sPLA2 (10 microliters) to appropriate wells; • 4. Incubate plate at 40° C. for 30 minutes; • 5. Read absorbance of wells at 405 nanometers with an automatic plate reader.
Tests were done in triplicate. Typically, compounds were tested at a final concentration of 5 ug/ml. […] Lack of color development at 405 nanometers evidenced inhibition. Compounds initially found to be active were re-assayed to confirm their activity and, if sufficiently active, IC50 values were determined. […] In all cases, % inhibition measured at 405 nanometers generated by enzyme reactions containing inhibitors relative to the uninhibited control reactions was determined. Each sample was titrated in triplicate and result values were averaged for plotting and calculation of IC50 values. IC50 values were determined by plotting log concentration versus inhibition values in the range from 10-90% inhibition.
Turning to `CCc1c(C(=O)C(N)=O)c2c(OCC(=O)OC)cc3ccccc3c2n1Cc1ccccc1` [Example 1, 2-[[3-(2-Amino-1,2-dioxoethyl)-2-ethyl-1-benzyl-1H-benz[g]indol-4-yl]oxy]acetic acid methyl ester hemihydrate], the IC50 is 0.048 µM.
As for `CCc1c(C(=O)C(N)=O)c2c(OCC(=O)O)cc3ccccc3c2n1Cc1ccccc1` [Example 2, 2-[[3-(2-Amino-1,2-dioxoethyl)-2-ethyl-1-benzyl-1H-benz[g]indol-4-yl]oxy]acetic acid], the 50% inhibitory concentration (IC50) worked out at 0.01 µM.
The same measure, in the same setting: with `COC(=O)COc1cc2ccccc2c2c1c(C(=O)C(N)=O)c(C)n2CC1CCCCC1` [Example 3, 2-[[3-(2-amino-1,2-dioxoethyl)-2-methyl-1-cyclohexylmethyl-1H-benz[g]indol-4-yl]oxy]acetic acid methyl ester] the figure was 0.148 µM; with `Cc1c(C(=O)C(N)=O)c2c(OCC(=O)O)cc3ccccc3c2n1CC1CCCCC1` [Example 4, 2-[[3-(2-Amino-1,2-dioxoethyl)-2-methyl-1-cyclohexylmethyl-1H-benz[g]indol-4-yl]oxy]acetic acid], 0.011 µM.
Consider `COC(=O)COc1cc2ccccc2c2c1c(C(=O)C(N)=O)c(C)n2Cc1cccc(-c2ccc(F)cc2)c1` [Example 5, 2-[[3-(2-Amino-1,2-dioxoethyl)-2-methyl-1-[3-(4-fluorophenyl)benzyl]-1H-benz[g]indol-4-yl]oxy]acetic acid methyl ester], for which the concentration for half-maximal inhibition (IC50) stood at 0.176 µM.
Still for that read-out and setting: with `Cc1c(C(=O)C(N)=O)c2c(OCC(=O)O)cc3ccccc3c2n1Cc1cccc(-c2ccc(F)cc2)c1` [Example 6, 2-[[3-(2-Amino-1,2-dioxoethyl)-2-methyl-1-[3-(4-fluorophenyl)benzyl]-1H-benz[g]indol-4-yl]oxy]acetic acid.] the figure was 0.021 µM.

System in another data set: not given
Test: not given
Conditions: not given
In turn, `CCc1c(C(=O)C(N)=O)c2c(OCC(=O)OC)cc3ccccc3c2n1Cc1ccccc1` (hydrate or solvate) [Example 1, 2-[[3-(2-Amino-1,2-dioxoethyl)-2-ethyl-1-benzyl-1H-benz[g]indol-4-yl]oxy]acetic acid methyl ester hemihydrate] displayed a melting point of 165 to 167 °C.
